Columns and labels:
[1] = test system: focal cerebral cryolesion; conditions: treatment following cryolesion; cited from earlier work
[2] = test system: blast-exposed Sprague Dawley rats (blast-induced tinnitus); experiment: Gap-detection testing (acoustic startle) for blast-induced tinnitus
Description: Thirty adult Sprague Dawley rats (110 days old, 250-300 g) were purchased from Charles River Laboratories (Wilmington, Mass.).
Animals underwent 8 rounds of behavior testing to stabilize baseline Gap-detection and PPI performance prior to blast or sham-blast exposure. […] Briefly, each rat was placed in a custom-built polycarbonate restrainer (FIG. 1) and set inside a lit startle monitor cabinet equipped with two ceiling speakers for background sound/prepulses and startle stimuli. Restrainers were mounted on top of a platform connected to a piezoelectric transducer, which measured downward startle force. Acoustic stimuli and startle force were calibrated using a Newton impulse calibrator (Kinder Scientific) and a microphone (Model 4016; ACO Pacific, Belmont, Calif.).
During the Gap-detection procedure, rats were exposed to constant 60 dB sound pressure level (SPL) background noise consisting of 2 kHz bandpass signals from 2-4 kHz, 6-8 kHz, 8-10 kHz, 10-12 kHz, 14-16 kHz, 18-20 kHz, or 26-28 kHz, or BBN (2-30 kHz). They were subjected to either a 50 ms white noise burst startle stimulus (startle only; dominating plateau from 3-37 kHz with energy up to 97.5 kHz) presented at 115 dB or the startle stimulus preceded by a 40 ms silent period beginning 90 ms before the startle stimulus (Gap). For each testing session, rats were presented 8 times with the startle only and Gap conditions for each frequency bandpass signal and BBN. The PPI procedure was identical to the Gap-detection procedure except that no background sound was presented. Rats were subjected to either the startle stimulus alone (startle only) or the startle stimulus preceded by a 40 ms prepulse beginning 90 ms before the startle stimulus. Prepulses (60 dB, SPL) consisted of the same frequencies as those used for background noise.
A two-minute acclimatization period was given at the beginning of each session, followed by two startle stimuli presented without background sound to trigger any initial, exaggerated startle reflexes. Gap-detection and PPI testing sessions lasted a little over thirty minutes each. […]

[3] = test system: Neurospheres isolated from the subventricular zone of adult rat brains; conditions: neurospheres treated with sildenafil; cited from earlier work
[4] = test system: blast-exposed Sprague Dawley rats (wave 1 amplitude); experiment: ABR wave 1 (P1N1) amplitude after blast exposure; type: in vivo, rat; conditions: 28 kHz
Procedure: ABRs were recorded to evaluate hearing thresholds. Each rat was anesthetized using a mixture of air (0.41/min) and isoflurane (2-3%, v/v) and placed in a prone position with its head fixed to a stereotaxic frame. Body temperature was maintained using a warming blanket connected to a thermostatic controller (Harvard Instruments, Holliston, Mass.). Acoustic stimuli consisted of 0.1 ms clicks or 10 ms pure-tone bursts presented at 4, 8, 12, 16, 20, or 28 kHz and delivered through a speaker tube inserted into the external auditory canal. Three subcutaneous platinum-coated tungsten electrodes were used to record ABR waveforms, with the reference electrode inserted below the pinna ipsilateral to the speaker tube, the grounding electrode inserted below the contralateral pinna, and the recording electrode inserted at the vertex. […] Data were recorded using BioSigRP® and SigGenRP® software (TDT, Alachua, Fla.) installed on an IBM computer connected to System 3 TDT workstation.
There is a significant reduction in wave 1 amplitudes in human subjects suffering from tinnitus despite a seemingly normal audiogram. In order to assess the possibility of underlying wave 1 amplitude reduction despite recovery of ABR thresholds, wave 1 amplitudes for 28 kHz frequency were measured at pre-blast and at 6 weeks post-blast and compared between the Treated and Untreated groups (FIGS. 7A and 7B). […]

[5] = upon oral intake; cited from earlier work
[6] = test system: rats exposed to embolic stroke; conditions: sildenafil treated rats; cited from earlier work

CCCOc1ccccc1-c1nc2nn[nH]c2c(=O)[nH]1 [Zaprinast]
Effects after focal cerebral cryolesion [1]: improved functional recovery, reduced oxidative stress, and prevention of apoptotic cell death

CCCc1nn(C)c2c(=O)[nH]c(-c3cc(S(=O)(=O)N4CCN(C)CC4)ccc3OCC)nc12 [sildenafil, 1-[4-ethoxy-3-(6,7-dihydro-1-methyl-7-oxo-3-propyl-1H-pyrazolo[4,3-d]pyrimidin-5-yl)phenylsulfonyl]-4-methylpiperazine]
Gap-detection in Sham group (drug, no blast): tinnitus symptoms produced by the drug ([2]; Sham group: sildenafil 10 mg/kg, no blast exposure, throughout the study): the drug itself did not produce tinnitus symptoms | Effect on high-frequency tinnitus (overall) ([2]; high-frequency (26-28 kHz) tinnitus, reemerged afterwards): suppressed high-frequency tinnitus from 3-6 weeks post-blast | Duration of therapeutic effect on blast-induced tinnitus (Gap-detection) ([2]; sildenafil 10 mg/kg oral gavage, two 7-day rounds): maintained up to week 6 | cGMP concentration [3]: increased cGMP concentration | Wave 1 (P1N1) amplitude, Treated vs Untreated ([4]; exposed ear, 6 weeks post-blast): no significant differences between the two groups at time-matched points | Decrease of wave 1 amplitude ([4]; 6 weeks after triple blast exposure, Treated group (same in Untreated)): 45% | Tmax [5]: ≤ 11 min | Effects after embolic stroke [6]: improvement in angiogenesis, selective increase in cerebral blood flow, and enhanced neurological functional recovery up to 6 weeks post-injury
